In patent US9624229B2, “Pyrimidine-2-amine compounds and their use as inhibitors of JAK kinases” (Rigel Pharmaceuticals, Inc., priority 2008, dated 2017):

The compounds below were run against Ba/F3 V617F cells (Homo sapiens, UniProt O60674, V617F, cells depend on it) (assay: Proliferation assay (Cell Titer-Glo, 72 h) utilizing Ba/F3 V617F cells). Conditions: Ba/F3 V617F cells, proliferation, level of activity given as class symbol, read-out: IC50 (the source's name).
Sequence of Ba/F3 V617F cells (O60674 whole entry V617F): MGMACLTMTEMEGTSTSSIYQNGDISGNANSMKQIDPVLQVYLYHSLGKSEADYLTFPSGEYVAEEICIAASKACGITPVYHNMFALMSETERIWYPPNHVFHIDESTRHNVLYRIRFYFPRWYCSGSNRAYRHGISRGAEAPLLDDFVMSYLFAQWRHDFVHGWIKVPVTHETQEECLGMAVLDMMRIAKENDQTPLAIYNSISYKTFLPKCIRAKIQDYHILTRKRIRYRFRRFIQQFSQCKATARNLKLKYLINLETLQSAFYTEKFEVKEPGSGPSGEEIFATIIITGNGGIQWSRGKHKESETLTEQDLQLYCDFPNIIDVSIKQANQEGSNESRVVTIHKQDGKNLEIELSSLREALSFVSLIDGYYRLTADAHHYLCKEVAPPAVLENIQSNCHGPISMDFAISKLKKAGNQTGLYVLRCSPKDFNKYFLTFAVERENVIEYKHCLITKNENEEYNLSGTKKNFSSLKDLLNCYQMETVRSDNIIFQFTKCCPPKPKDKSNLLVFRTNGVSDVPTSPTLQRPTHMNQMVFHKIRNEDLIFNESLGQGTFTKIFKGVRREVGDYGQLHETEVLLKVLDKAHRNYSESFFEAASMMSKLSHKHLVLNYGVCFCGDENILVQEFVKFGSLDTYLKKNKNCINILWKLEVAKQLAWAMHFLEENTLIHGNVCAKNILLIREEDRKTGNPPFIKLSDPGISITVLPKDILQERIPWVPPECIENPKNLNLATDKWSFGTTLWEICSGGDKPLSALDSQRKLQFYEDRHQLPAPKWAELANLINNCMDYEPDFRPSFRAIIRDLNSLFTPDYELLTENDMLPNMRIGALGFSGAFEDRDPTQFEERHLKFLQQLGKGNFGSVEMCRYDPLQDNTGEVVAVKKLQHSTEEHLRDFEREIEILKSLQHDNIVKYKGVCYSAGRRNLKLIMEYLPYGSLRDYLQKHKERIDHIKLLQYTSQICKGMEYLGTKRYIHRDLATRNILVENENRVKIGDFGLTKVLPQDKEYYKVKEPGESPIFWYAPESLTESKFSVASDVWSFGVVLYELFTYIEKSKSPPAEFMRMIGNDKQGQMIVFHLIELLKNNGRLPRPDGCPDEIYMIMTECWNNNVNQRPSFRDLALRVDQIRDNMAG
Format: cell-based, mouse
How it was run: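 Ba/F3 V617F cells in RPMI/10% FBS, 1×10^5 cells/mL, exposed in duplicate to 3-fold serial compound dilutions (top 5 mM DMSO stock, diluted 1:250, added as 2× solution in 5% FBS medium) for 72 h at 37 °C. Viability by Cell Titer-Glo luminescence; IC50 reported.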
With `Cc1cc(Nc2nccc(-c3ccc4c(c3)OC(C)(C)C(=O)N4)n2)ccc1N1C[C@@H]2C[C@H]1CN2C` [compound 240, 4-(2,2-dimethyl-3-oxo-3,4-dihydro-2H-benzo[b][1,4]oxazin-7-yl)-N-(3-methyl-4-((1S,4S)-5-methyl-2,5-diazabicyclo[2.2.1]heptan-2-yl)phenyl)pyrimidin-2-amine] the GI50 was < 1000 nM. In the case of `Cc1cc(Nc2nccc(-c3ccc4c(c3)OC(C)(C)C(=O)N4)n2)ccc1N1C[C@@H]2C[C@H]1CN2S(C)(=O)=O` [compound 241, 4-(2,2-dimethyl-3-oxo-3,4-dihydro-2H-benzo[b][1,4]oxazin-7-yl)-N-(3-methyl-4-((1S,4S)-5-methylsulfonyl-2,5-diazabicyclo[2.2.1]heptan-2-yl)phenyl)pyrimidin-2-amine], the GI50 is reported as < 1000 nM. `Cc1cc(Nc2nccc(-c3ccc4c(c3)CCCC(=O)N4)n2)ccc1N1C[C@@H]2C[C@H]1CN2C` [compound 242, 4-(2-oxo-2,3,4,5-tetrahydro-1H-benzo[b]azepin-7-yl)-N-(3-methyl-4-((1S,4S)-5-methyl-2,5-diazabicyclo[2.2.1]heptan-2-yl)phenyl)pyrimidin-2-amine] was tested, and the GI50 was < 1000 nM. `Cc1cc(Nc2nccc(-c3ccc4c(c3)CCCC(=O)N4)n2)ccc1N1C[C@@H]2C[C@H]1CN2S(C)(=O)=O` [compound 243, 4-(2-oxo-2,3,4,5-tetrahydro-1H-benzo[b]azepin-7-yl)-N-(3-methyl-4-((1S,4S)-5-methylsulfonyl-2,5-diazabicyclo[2.2.1]heptan-2-yl)phenyl)pyrimidin-2-amine] was tested, and the GI50 was < 1000 nM. `Cc1cc(Nc2nccc(-c3ccc4c(c3)OC(C)(C)C(=O)N4)n2)ccc1N1CCN2C(C1)[C@H]1CC[C@@H]2C1` (stereo partly drawn) [compound 244, 4-(2,2-dimethyl-3-oxo-3,4-dihydro-2H-benzo[b][1,4]oxazin-7-yl)-N-(3-methyl-4-((6R,9S)-6,9-methanooctahydro-1H-pyrido[1,2-a]pyrazin-2-yl)phenyl)pyrimidin-2-amine] was tested, and the GI50 was < 1000 nM. With `Cc1cc(Nc2nccc(-c3ccc(N4CCOCC4)nc3)n2)ccc1N1CCN2C(C1)[C@H]1CC[C@@H]2C1` (stereo partly drawn) [compound 245, 4-(6-(morpholin-4-yl)pyridin-3-yl)-N-(3-methyl-4-((6R,9S)-6,9-methanooctahydro-1H-pyrido[1,2-a]pyrazin-2-yl)phenyl)pyrimidin-2-amine] the GI50 was < 1000 nM. `Cc1cc(Nc2nccc(-c3cnc4c(c3)OC(C)(C)C(=O)N4)n2)ccc1N1C[C@@H]2C[C@H]1CN2C(C)C` [compound 246, 4-(2,2-dimethyl-3-oxo-3,4-dihydro-2H-pyrido[3,2-b][1,4]oxazin-7-yl)-N-(3-methyl-4-((1S,4S)-5-(1-methylethyl)-2,5-diazabicyclo[2.2.1]heptan-2-yl)phenyl)pyrimidin-2-amine] was tested, and the GI50 was < 1000 nM. For `Cc1cc(Nc2nccc(-c3cnc4c(c3)OC(C)(C)C(=O)N4)n2)ccc1N1C[C@@H]2C[C@H]1CN2C1CC1` [compound 247, 4-(2,2-dimethyl-3-oxo-3,4-dihydro-2H-pyrido[3,2-b][1,4]oxazin-7-yl)-N-(3-methyl-4-((1S,4S)-5-cyclopropyl-2,5-diazabicyclo[2.2.1]heptan-2-yl)phenyl)pyrimidin-2-amine], the GI50 was < 1000 nM. In the case of `CN1C[C@@H]2C[C@H]1CN2c1ccc(Nc2nccc(-c3cnc4c(c3)OC(C)(C)C(=O)N4)n2)cc1Cl` [compound 248, 4-(2,2-dimethyl-3-oxo-3,4-dihydro-2H-pyrido[3,2-b][1,4]oxazin-7-yl)-N-(3-chloro-4-((1S,4S)-5-methyl-2,5-diazabicyclo[2.2.1]heptan-2-yl)phenyl)pyrimidin-2-amine], the GI50 is reported as < 1000 nM. `CC1(C)Oc2cc(-c3ccnc(Nc4ccc(N5C[C@@H]6C[C@H]5CN6S(C)(=O)=O)c(Cl)c4)n3)cnc2NC1=O` [compound 249, 4-(2,2-dimethyl-3-oxo-3,4-dihydro-2H-pyrido[3,2-b][1,4]oxazin-7-yl)-N-(3-chloro-4-((1S,4S)-5-(methylsulfonyl)-2,5-diazabicyclo[2.2.1]heptan-2-yl)phenyl)pyrimidin-2-amine] was tested, and the GI50 was < 1000 nM. For `Cc1cc(Nc2nccc(-c3cnc4c(c3)OC(C)(C)C(=O)N4)n2)ccc1N1C[C@@H]2C[C@H]1CN2C1CCCC1` [compound 250, 4-(2,2-dimethyl-3-oxo-3,4-dihydro-2H-pyrido[3,2-b][1,4]oxazin-7-yl)-N-(3-methyl-4-((1S,4S)-5-cyclopentyl-2,5-diazabicyclo[2.2.1]heptan-2-yl)phenyl)pyrimidin-2-amine], the GI50 was < 1000 nM. `CC(=O)N1C[C@@H]2C[C@H]1CN2c1ccc(Nc2nccc(-c3cnc4c(c3)OC(C)(C)C(=O)N4)n2)cc1C` [compound 251, 4-(2,2-dimethyl-3-oxo-3,4-dihydro-2H-pyrido[3,2-b][1,4]oxazin-7-yl)-N-(3-methyl-4-((1S,4S)-5-acetyl-2,5-diazabicyclo[2.2.1]heptan-2-yl)phenyl)pyrimidin-2-amine] was tested, and the GI50 was < 1000 nM. In the case of `Cc1cc(Nc2nccc(-c3cnc4c(c3)OC(C)(C)C(=O)N4)n2)ccc1N1CCN2CCC1C2` (centres unmarked) [compound 252, 4-(2,2-dimethyl-3-oxo-3,4-dihydro-2H-pyrido[3,2-b][1,4]oxazin-7-yl)-N-(3-methyl-4-(1,4-diazabicyclo[3.2.1]octan-4-yl)phenyl)pyrimidin-2-amine], the GI50 is reported as < 1000 nM. With `Cc1cc(Nc2nccc(-c3cnc(N)c(CCCC(=O)OC(C)C)c3)n2)ccc1N1C[C@@H]2C[C@H]1CN2C` [compound 253, 4-(5-(1-methylethoxy)carbonylpropyl-6-aminopyridin-3-yl)-N-(3-methyl-4-((1S,4S)-5-methyl-2,5-diazabicyclo[2.2.1]heptan-2-yl)phenyl)pyrimidin-2-amine] the GI50 was < 1000 nM. For `Cc1cc(Nc2nccc(-c3ccc(N4CCOCC4)nc3)n2)ccc1N1C[C@@H]2C[C@H]1CN2C1CC1` [compound 254, 4-(6-(morpholin-4-yl)pyridin-3-yl)-N-(3-methyl-4-((1S,4S)-5-cyclopropyl-2,5-diazabicyclo[2.2.1]heptan-2-yl)phenyl)pyrimidin-2-amine], the GI50 was < 1000 nM. For `CN1C[C@@H]2C[C@H]1CN2c1ccc(Nc2nccc(-c3ccc(N4CCOCC4)nc3)n2)cc1Cl` [compound 255, 4-(6-(morpholin-4-yl)pyridin-3-yl)-N-(3-chloro-4-((1S,4S)-5-methyl-2,5-diazabicyclo[2.2.1]heptan-2-yl)phenyl)pyrimidin-2-amine], the GI50 was < 1000 nM. `Cc1cc(Nc2nccc(-c3ccnc(C(F)(F)F)c3)n2)ccc1N1C[C@@H]2C[C@H]1CN2C` [compound 256, 4-(2-(trifluoromethyl)pyridin-4-yl)-N-(3-methyl-4-((1S,4S)-5-methyl-2,5-diazabicyclo[2.2.1]heptan-2-yl)phenyl)pyrimidin-2-amine] was tested, and the GI50 was < 1000 nM. With `CS(=O)(=O)N1C[C@@H]2C[C@H]1CN2c1ccc(Nc2nccc(-c3ccc(N4CCOCC4)nc3)n2)cc1Cl` [compound 257, 4-(6-(morpholin-4-yl)pyridin-3-yl)-N-(3-chloro-4-((1S,4S)-5-(methylsulfonyl)-2,5-diazabicyclo[2.2.1]heptan-2-yl)phenyl)pyrimidin-2-amine] the GI50 was < 1000 nM. Compound `CS(=O)(=O)N1C[C@@H]2C[C@H]1CN2c1ccc(Nc2nccc(-c3ccc(OC4CCOCC4)nc3)n2)cc1Cl` [compound 258, 4-(6-(tetrahydropyran-4-yloxy)pyridin-3-yl)-N-(3-chloro-4-((1S,4S)-5-(methylsulfonyl)-2,5-diazabicyclo[2.2.1]heptan-2-yl)phenyl)pyrimidin-2-amine] has a GI50 of 1000 to 10000 nM. In the case of `CC(=O)N1C[C@@H]2C[C@H]1CN2c1ccc(Nc2nccc(-c3ccc(N4CCOCC4)nc3)n2)cc1Cl` [compound 259, 4-(6-(morpholin-4-yl)pyridin-3-yl)-N-(3-chloro-4-((1S,4S)-5-acetyl-2,5-diazabicyclo[2.2.1]heptan-2-yl)phenyl)pyrimidin-2-amine], the GI50 is reported as < 1000 nM. Compound `CC(=O)N1C[C@@H]2C[C@H]1CN2c1ccc(Nc2nccc(-c3ccc(OC4CCOCC4)nc3)n2)cc1Cl` [compound 260, 4-(6-(tetrahydropyran-4-yloxy)pyridin-3-yl)-N-(3-chloro-4-((1S,4S)-5-acetyl-2,5-diazabicyclo[2.2.1]heptan-2-yl)phenyl)pyrimidin-2-amine] has a GI50 of 1000 to 10000 nM. With `Cc1cc(Nc2nccc(-c3ccc(OC4CCOCC4)nc3)n2)ccc1N1C[C@@H]2C[C@H]1CN2C` [compound 261, 4-(6-(tetrahydropyran-4-yloxy)pyridin-3-yl)-N-(3-methyl-4-((1S,4S)-5-methyl-2,5-diazabicyclo[2.2.1]heptan-2-yl)phenyl)pyrimidin-2-amine] the GI50 was < 1000 nM. For `Cc1cc(Nc2nccc(-c3ccc(OC4CCOCC4)nc3)n2)ccc1N1C[C@@H]2C[C@H]1CN2C1CCCC1` [compound 262, 4-(6-(tetrahydropyran-4-yloxy)pyridin-3-yl)-N-(3-methyl-4-((1S,4S)-5-cyclopentyl-2,5-diazabicyclo[2.2.1]heptan-2-yl)phenyl)pyrimidin-2-amine], the GI50 was < 1000 nM. With `CC(C)N1C[C@@H]2C[C@H]1CN2c1ccc(Nc2nccc(-c3ccc(N4CCOCC4)nc3)n2)cc1Cl` [compound 263, 4-(6-(morpholin-4-yl)pyridin-3-yl)-N-(3-chloro-4-((1S,4S)-5-(1-methylethyl)-2,5-diazabicyclo[2.2.1]heptan-2-yl)phenyl)pyrimidin-2-amine] the GI50 was < 1000 nM. For `Cc1cc(Nc2nccc(-c3ccc(N4C[C@@H]5C[C@H]4CO5)nc3)n2)ccc1N1C[C@@H]2C[C@H]1CN2S(C)(=O)=O` [compound 264, 4-(6-((1S,4S)-2-oxa-5-azabicyclo[2.2.1]heptan-5-yl)pyridin-3-yl)-N-(3-methyl-4-((1S,4S)-5-(methylsulfonyl)-2,5-diazabicyclo[2.2.1]heptan-2-yl)phenyl)pyrimidin-2-amine], the GI50 was < 1000 nM. For `Cc1cc(Nc2nccc(-c3ccc(N4C[C@H]5C[C@@H]4CO5)nc3)n2)ccc1N1C[C@@H]2C[C@H]1CN2C` [compound 265, 4-(6-((1R,4R)-2-oxa-5-azabicyclo[2.2.1]heptan-5-yl)pyridin-3-yl)-N-(3-methyl-4-((1S,4S)-5-methyl-2,5-diazabicyclo[2.2.1]heptan-2-yl)phenyl)pyrimidin-2-amine], the GI50 was < 1000 nM.
